Source: patent US20210045385A1, “PYRIDAZINONE-SUBSTITUTED KETOXIMES AS HERBICIDES” (FMC Corporation, priority 2018, published 2021)

Legend:
Format in all cases: in vivo
corn (Zea mays) = test: Test A postemergence, visual plant response rating; settings: for Corn plant response rating (0 to 100 scale): 500 g ai/ha, postemergence, 0 is no effect, 100 is complete control; for Corn plant response rating: Postemergence, 125 g ai/ha, 0 to 100 scale (0 no effect, 100 complete control)
Outline: (§1)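 Greenhouse pot test in loam–sand soil mix: compound in a surfactant-containing non-phytotoxic solvent applied preemergence (directed soil spray) or postemergence (one- to two-leaf plants, 2–10 cm). Injury scored visually after ~10 days, 0–100.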

[1] = tested on: foxtail, giant (giant foxtail, Setaria faberii); test: Test A postemergence, visual plant response rating; settings: for Foxtail, Giant plant response rating (0 to 100 scale): 500 g ai/ha, postemergence, 0 is no effect, 100 is complete control; for Foxtail, Giant plant response rating: Postemergence, 125 g ai/ha, 0 to 100 scale (0 no effect, 100 complete control)
Outline: as §1

[2] = tested on: galium (catchweed bedstraw, Galium aparine); test: Test A postemergence, visual plant response rating; settings: for Galium plant response rating (0 to 100 scale): 500 g ai/ha, postemergence, 0 is no effect, 100 is complete control; for Galium plant response rating: Postemergence, 125 g ai/ha, 0 to 100 scale (0 no effect, 100 complete control)
Outline: as §1

[3] = tested on: pigweed (Amaranthus retroflexus); test: Test A postemergence, visual plant response rating; settings: for Pigweed plant response rating (0 to 100 scale): 500 g ai/ha, postemergence, 0 is no effect, 100 is complete control; for Pigweed plant response rating: Postemergence, 125 g ai/ha, 0 to 100 scale (0 no effect, 100 complete control)
Outline: as §1

[4] = tested on: barnyardgrass (Echinochloa crus-galli); test: Test A postemergence, visual plant response rating; settings: for Barnyardgrass plant response rating (0 to 100 scale): 500 g ai/ha, postemergence, 0 is no effect, 100 is complete control; for Barnyardgrass plant response rating: Postemergence, 125 g ai/ha, 0 to 100 scale (0 no effect, 100 complete control)
Outline: as §1

kochia (Kochia scoparia) [5] = test: Test A postemergence, visual plant response rating; settings: for Kochia plant response rating (0 to 100 scale): 500 g ai/ha, postemergence, 0 is no effect, 100 is complete control; for Kochia plant response rating: Postemergence, 125 g ai/ha, 0 to 100 scale (0 no effect, 100 complete control)
Outline: as §1

[6] = tested on: blackgrass (Alopecurus myosuroides); test: Test A postemergence, visual plant response rating; settings: for Blackgrass plant response rating (0 to 100 scale): 500 g ai/ha, postemergence, 0 is no effect, 100 is complete control; for Blackgrass plant response rating: Postemergence, 125 g ai/ha, 0 to 100 scale (0 no effect, 100 complete control)
Outline: as §1

[7] = tested on: wheat (Triticum aestivum); test: Test A postemergence, visual plant response rating; settings: for Wheat plant response rating (0 to 100 scale): 500 g ai/ha, postemergence, 0 is no effect, 100 is complete control; for Wheat plant response rating: Postemergence, 125 g ai/ha, 0 to 100 scale (0 no effect, 100 complete control)
Outline: as §1

[8] = tested on: ragweed (common ragweed, Ambrosia elatior); test: Test A postemergence, visual plant response rating; settings: for Ragweed plant response rating (0 to 100 scale): 500 g ai/ha, postemergence, 0 is no effect, 100 is complete control; for Ragweed plant response rating: Postemergence, 125 g ai/ha, 0 to 100 scale (0 no effect, 100 complete control)
Outline: as §1

[9] = tested on: Italian ryegrass (Lolium multiflorum); test: Test A postemergence, visual plant response rating; settings: for Ryegrass, Italian plant response rating (0 to 100 scale): 500 g ai/ha, postemergence, 0 is no effect, 100 is complete control; for Ryegrass, Italian plant response rating: Postemergence, 125 g ai/ha, 0 to 100 scale (0 no effect, 100 complete control)
Outline: as §1

[10] = tested on: sedge, umbrella (small-flower umbrella sedge, Cyperus difformis); test: Test B flooded paddy test, visual plant response rating; settings: 250 g ai/ha, Flood, applied to paddy water, 2-leaf stage, evaluated after 13 to 15 days
Outline: (§2)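 Compounds added straight into paddy water of pots flooded to 3 cm, with 2-leaf-stage plants of the four species; water level held throughout.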

rice (Oryza sativa) = test: as above; settings: 250 g ai/ha, Flood, applied to paddy water, 2-leaf stage, evaluated after 13 to 15 days
Outline: as §2

[11] = tested on: barnyardgrass (Echinochloa crus-galli); test: as above; settings: 250 g ai/ha, Flood, applied to paddy water, 2-leaf stage, evaluated after 13 to 15 days
Outline: as §2

[12] = tested on: ducksalad (Heteranhera limosa); test: as above; settings: 250 g ai/ha, Flood, applied to paddy water, 2-leaf stage, evaluated after 13 to 15 days
Outline: as §2

[13] = tested on: foxtail, giant (giant foxtail, Setaria faberii); test: Test A preemergence, visual plant response rating; settings: for Foxtail, Giant plant response rating: 125 g ai/ha, preemergence, 0 to 100 scale, 0 no effect, 100 complete control; for Foxtail, Giant plant response rating (0 to 100 scale): 500 g ai/ha Preemergence, approx. 10 days
Outline: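 Ratings use a 0–100 visual scale (100 = complete control) against untreated controls, scored about 10 days after greenhouse treatment. Test chemicals were formulated in surfactant-containing non-phytotoxic solvent and applied either as soil spray after planting (preemergence) or onto one- to two-leaf, 2–10 cm plants (postemergence).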

[14] = tested on: pigweed (Amaranthus retroflexus); test: Test A preemergence, visual plant response rating; settings: for Pigweed plant response rating: 125 g ai/ha, preemergence, 0 to 100 scale, 0 no effect, 100 complete control; for Pigweed plant response rating (0 to 100 scale): 500 g ai/ha Preemergence, approx. 10 days
Outline: as §1

[15] = tested on: barnyardgrass (Echinochloa crus-galli); test: Test A preemergence, visual plant response rating; settings: for Barnyardgrass plant response rating: 125 g ai/ha, preemergence, 0 to 100 scale, 0 no effect, 100 complete control; for Barnyardgrass plant response rating (0 to 100 scale): 500 g ai/ha Preemergence, approx. 10 days
Outline: as §1

kochia (Kochia scoparia) [16] = test: Test A preemergence, visual plant response rating; settings: for Kochia plant response rating: 125 g ai/ha, preemergence, 0 to 100 scale, 0 no effect, 100 complete control; for Kochia plant response rating (0 to 100 scale): 500 g ai/ha Preemergence, approx. 10 days
Outline: as §1

[17] = tested on: ragweed (common ragweed, Ambrosia elatior); test: Test A preemergence, visual plant response rating; settings: for Ragweed plant response rating: 125 g ai/ha, preemergence, 0 to 100 scale, 0 no effect, 100 complete control; for Ragweed plant response rating (0 to 100 scale): 500 g ai/ha Preemergence, approx. 10 days
Outline: as §1

[18] = tested on: Italian ryegrass (Lolium multiflorum); test: Test A preemergence, visual plant response rating; settings: for Ryegrass, Italian plant response rating: 125 g ai/ha, preemergence, 0 to 100 scale, 0 no effect, 100 complete control; for Ryegrass, Italian plant response rating (0 to 100 scale): 500 g ai/ha Preemergence, approx. 10 days
Outline: as §1

SMILES	Corn plant response rating (0 to 100 scale) (corn (Zea mays))	Corn plant response rating (corn (Zea mays))	Foxtail, Giant plant response rating (0 to 100 scale) [1]	Foxtail, Giant plant response rating [1]	Galium plant response rating (0 to 100 scale) [2]	Galium plant response rating [2]	Pigweed plant response rating (0 to 100 scale) [3]	Pigweed plant response rating [3]	Barnyardgrass plant response rating (0 to 100 scale) [4]	Barnyardgrass plant response rating [4]	Kochia plant response rating (0 to 100 scale) (kochia (Kochia scoparia) [5])	Kochia plant response rating (kochia (Kochia scoparia) [5])	Blackgrass plant response rating (0 to 100 scale) [6]	Blackgrass plant response rating [6]	Wheat plant response rating (0 to 100 scale) [7]	Wheat plant response rating [7]	Ragweed plant response rating (0 to 100 scale) [8]	Ragweed plant response rating [8]	Ryegrass, Italian plant response rating (0 to 100 scale) [9]	Ryegrass, Italian plant response rating [9]	other results
CO/N=C(\c1ccc(C)o1)c1c(O)c(C)nn(C)c1=O [Compound 53]	30	0	90	10	0	0	0	0	70	10	0	0	40	10	0	0	0	0	90	20	Plant response rating, Sedge, Umbrella (0 to 100 scale, 0 is no effect, 100 is complete control) [10]: 0; Plant response rating, Rice (0 to 100 scale, 0 is no effect, 100 is complete control) (rice (Oryza sativa)): 0; Plant response rating, Barnyardgrass (0 to 100 scale, 0 is no effect, 100 is complete control) [11]: 0; Plant response rating, Ducksalad (0 to 100 scale, 0 is no effect, 100 is complete control) [12]: 0; Foxtail, Giant plant response rating [13]: 0; Foxtail, Giant plant response rating (0 to 100 scale) [13]: 0; Pigweed plant response rating [14]: 0; Pigweed plant response rating (0 to 100 scale) [14]: 0; Barnyardgrass plant response rating [15]: 0; Barnyardgrass plant response rating (0 to 100 scale) [15]: 0; Kochia plant response rating (kochia (Kochia scoparia) [16]): 0; Kochia plant response rating (0 to 100 scale) (kochia (Kochia scoparia) [16]): 0; Ragweed plant response rating [17]: 0; Ragweed plant response rating (0 to 100 scale) [17]: 0; Ryegrass, Italian plant response rating [18]: 0; Ryegrass, Italian plant response rating (0 to 100 scale) [18]: 0
CON=C(c1c(O)c(C)nn(C)c1=O)c1ccc(OC)c2ccccc12 [Compound 55]	30	0	50	20	70	50	20	0	30	20	30	10	80	70	20	0	30	0	70	0	Plant response rating, Sedge, Umbrella (0 to 100 scale, 0 is no effect, 100 is complete control) [10]: 0; Plant response rating, Rice (0 to 100 scale, 0 is no effect, 100 is complete control) (rice (Oryza sativa)): 0; Plant response rating, Barnyardgrass (0 to 100 scale, 0 is no effect, 100 is complete control) [11]: 0; Plant response rating, Ducksalad (0 to 100 scale, 0 is no effect, 100 is complete control) [12]: 0; Foxtail, Giant plant response rating [13]: 10; Foxtail, Giant plant response rating (0 to 100 scale) [13]: 90; Pigweed plant response rating [14]: 0; Pigweed plant response rating (0 to 100 scale) [14]: 0; Barnyardgrass plant response rating [15]: 0; Barnyardgrass plant response rating (0 to 100 scale) [15]: 50; Kochia plant response rating (kochia (Kochia scoparia) [16]): 0; Kochia plant response rating (0 to 100 scale) (kochia (Kochia scoparia) [16]): 0; Ragweed plant response rating [17]: 10; Ragweed plant response rating (0 to 100 scale) [17]: 80; Ryegrass, Italian plant response rating [18]: 0; Ryegrass, Italian plant response rating (0 to 100 scale) [18]: 30
